Values joined by “and” are separate entries in the source; they are usually repeats but may differ in a detail not shown here. Equal values may be shown once. Blank lines part the entries; values can stand above or below the compound they belong to.
System: NCI-H1876 complex spheroid growth, % test/control
Test: Anticancer human tumor NCI-H1876 cell line growth inhibition [Asc];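 note: compound exposure lasted 7 days starting three days after seeding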;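 for viability, T/C: 100% = DMSO vehicle control wells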
Conditions: for viability, T/C: stronger effect = lower value
Procedure, shortened: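 Spheroid model: tumor line + HUVEC + hMSC. Single agents and combinations; top conc. at/near clinical Cmax (10 microM if undetermined), half-log dilutions. DMSO stocks at 800-fold test concentration.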

[1] = curve of first compound, second compound 0.00949 µM
[2] = curve of first compound, second compound 0.03 µM
[3] = curve of first compound, second compound 0.0949 µM
[4] = curve of first compound, second compound 0.3 µM
[5] = curve of first compound, second compound 0.949 µM
[6] = curve of first compound, second compound 3 µM
[7] = second compound 0.00949 µM, first compound 0.00316 µM
[8] = second compound 0.00949 µM, first compound 0.01 µM
[9] = second compound 0.00949 µM, first compound 0.0316 µM
[10] = second compound 0.00949 µM, first compound 0.1 µM
[11] = second compound 0.03 µM, first compound 0.00316 µM
[12] = second compound 0.03 µM, first compound 0.01 µM
[13] = second compound 0.03 µM, first compound 0.0316 µM
[14] = second compound 0.03 µM, first compound 0.1 µM
[15] = second compound 0.0949 µM, first compound 0.00316 µM
[16] = second compound 0.0949 µM, first compound 0.01 µM
[17] = second compound 0.0949 µM, first compound 0.0316 µM
[18] = second compound 0.0949 µM, first compound 0.1 µM
[19] = second compound 0.3 µM, first compound 0.00316 µM
[20] = second compound 0.3 µM, first compound 0.01 µM
[21] = second compound 0.3 µM, first compound 0.0316 µM
[22] = second compound 0.3 µM, first compound 0.1 µM
[23] = second compound 0.949 µM, first compound 0.00316 µM
[24] = second compound 0.949 µM, first compound 0.01 µM
[25] = second compound 0.949 µM, first compound 0.0316 µM
[26] = second compound 0.949 µM, first compound 0.1 µM
[27] = second compound 3 µM, first compound 0.00316 µM
[28] = second compound 3 µM, first compound 0.01 µM
[29] = second compound 3 µM, first compound 0.0316 µM
[30] = second compound 3 µM, first compound 0.1 µM
[31] = second compound 0.00949 µM, first compound 0.316 µM
[32] = second compound 0.00949 µM, first compound 1 µM
[33] = second compound 0.03 µM, first compound 0.316 µM
[34] = second compound 0.03 µM, first compound 1 µM
[35] = second compound 0.0949 µM, first compound 0.316 µM
[36] = second compound 0.0949 µM, first compound 1 µM
[37] = second compound 0.3 µM, first compound 0.316 µM
[38] = second compound 0.3 µM, first compound 1 µM
[39] = second compound 0.949 µM, first compound 0.316 µM
[40] = second compound 0.949 µM, first compound 1 µM
[41] = second compound 3 µM, first compound 0.316 µM
[42] = second compound 3 µM, first compound 1 µM

IC50 [1]: > 100 nM
IC50 [2]: > 100 nM
IC50 [3]: > 100 nM
IC50 [4]: > 100 nM
IC50 [5]: > 100 nM
IC50 [6]: > 100 nM
Structure (SMILES): Cn1ncnc1[C@H]1c2n[nH]c(=O)c3cc(F)cc(c23)N[C@@H]1c1ccc(F)cc1 + CCN1C(C(=O)NC23CCC(C(=O)O)(CC2)CC3)C(c2cccc(Cl)c2F)C2(C(=O)Nc3cc(Cl)ccc32)C12CCCCC2
viability, T/C (second compound 0.00949 µM, first compound 0.000316 µM): 123%
viability, T/C (second compound 0.00949 µM, first compound 0.001 µM): 89.9%
viability, T/C [7]: 113%
viability, T/C [8]: 102%
viability, T/C [9]: 100%
viability, T/C [10]: 91.6%
viability, T/C (second compound 0.03 µM, first compound 0.000316 µM): 100%
viability, T/C (second compound 0.03 µM, first compound 0.001 µM): 102%
viability, T/C [11]: 107%
viability, T/C [12]: 92.6%
viability, T/C [13]: 106%
viability, T/C [14]: 95.4%
viability, T/C (second compound 0.0949 µM, first compound 0.000316 µM): 101%
viability, T/C (second compound 0.0949 µM, first compound 0.001 µM): 99.4%
viability, T/C [15]: 111%
viability, T/C [16]: 104%
viability, T/C [17]: 113%
viability, T/C [18]: 89%
viability, T/C (second compound 0.3 µM, first compound 0.000316 µM): 103%
viability, T/C (second compound 0.3 µM, first compound 0.001 µM): 120%
viability, T/C [19]: 111%
viability, T/C [20]: 114%
viability, T/C [21]: 110%
viability, T/C [22]: 98.3%
viability, T/C (second compound 0.949 µM, first compound 0.000316 µM): 118%
viability, T/C (second compound 0.949 µM, first compound 0.001 µM): 134%
viability, T/C [23]: 117%
viability, T/C [24]: 134%
viability, T/C [25]: 123%
viability, T/C [26]: 91.6%
viability, T/C (second compound 3 µM, first compound 0.000316 µM): 103%
viability, T/C (second compound 3 µM, first compound 0.001 µM): 105%
viability, T/C [27]: 81.3%
viability, T/C [28]: 95.5%
viability, T/C [29]: 95.2%
viability, T/C [30]: 95.5%

IC50 (curve of compound): > 1000 nM
Structure (SMILES): O=C(c1ccc(F)c(F)c1Nc1ccc(I)cc1F)N1CC(O)([C@@H]2CCCCN2)C1
viability, T/C (compound 0.00316 µM): 101% and 103% (2×)
viability, T/C (compound 0.01 µM): 86.9% and 95% and 94%
viability, T/C (compound 0.0316 µM): 93.7% and 92.9% and 99%
viability, T/C (compound 0.1 µM): 97.5% and 91.4% and 95%
viability, T/C (compound 0.316 µM): 86.5% and 84.5% and 83.9%
viability, T/C (compound 1 µM): 79.9% and 75.1% and 76.9%

IC50 [1]: > 1000 nM
IC50 [2]: > 1000 nM
IC50 [3]: > 1000 nM
IC50 [4]: > 1000 nM
IC50 [5]: > 1000 nM
IC50 [6]: > 1000 nM
Structure (SMILES): CNC(C)C(=O)NC1CN(S(=O)(=O)c2cccc(S(=O)(=O)N3CCC4CCC(C(=O)NC(c5ccccc5)c5ccccc5)N4C(=O)C(NC(=O)C(C)NC)C3)c2)CCC2CCC(C(=O)NC(c3ccccc3)c3ccccc3)N2C1=O (stereo not drawn) + CCN1C(C(=O)NC23CCC(C(=O)O)(CC2)CC3)C(c2cccc(Cl)c2F)C2(C(=O)Nc3cc(Cl)ccc32)C12CCCCC2
viability, T/C [7]: 101%
viability, T/C [8]: 99.6%
viability, T/C [9]: 101%
viability, T/C [10]: 100%
viability, T/C [31]: 116%
viability, T/C [32]: 102%
viability, T/C [11]: 103%
viability, T/C [12]: 96.7%
viability, T/C [13]: 98.8%
viability, T/C [14]: 98.4%
viability, T/C [33]: 115%
viability, T/C [34]: 97%
viability, T/C [15]: 111%
viability, T/C [16]: 104%
viability, T/C [17]: 106%
viability, T/C [18]: 106%
viability, T/C [35]: 98.5%
viability, T/C [36]: 110%
viability, T/C [19]: 103%
viability, T/C [20]: 108%
viability, T/C [21]: 108%
viability, T/C [22]: 108%
viability, T/C [37]: 118%
viability, T/C [38]: 103%
viability, T/C [23]: 114%
viability, T/C [24]: 119%
viability, T/C [25]: 106%
viability, T/C [26]: 119%
viability, T/C [39]: 115%
viability, T/C [40]: 112%
viability, T/C [27]: 114%
viability, T/C [28]: 108%
viability, T/C [29]: 107%
viability, T/C [30]: 99.5%
viability, T/C [41]: 110%
viability, T/C [42]: 109%

IC50 [1]: > 10000 nM
IC50 [2]: > 10000 nM
IC50 [3]: > 10000 nM
IC50 [4]: > 10000 nM
IC50 [5]: > 10000 nM
IC50 [6]: > 10000 nM
Structure (SMILES): C#Cc1c(F)ccc2cc(O)cc(-c3ncc4c(N5CC6CCC(C5)N6)nc(OCC56CCCN5CC(F)C6)nc4c3F)c12 (stereo not drawn) + CCN1C(C(=O)NC23CCC(C(=O)O)(CC2)CC3)C(c2cccc(Cl)c2F)C2(C(=O)Nc3cc(Cl)ccc32)C12CCCCC2
viability, T/C [9]: 89.2%
viability, T/C [10]: 97.2%
viability, T/C [31]: 98.5%
viability, T/C [32]: 95.6%
viability, T/C (second compound 0.00949 µM, first compound 3.16 µM): 98.1%
viability, T/C (second compound 0.00949 µM, first compound 10 µM): 87.1%
viability, T/C [13]: 94.8%
viability, T/C [14]: 106%
viability, T/C [33]: 98.5%
viability, T/C [34]: 103%
viability, T/C (second compound 0.03 µM, first compound 3.16 µM): 95.3%
viability, T/C (second compound 0.03 µM, first compound 10 µM): 89.8%
viability, T/C [17]: 101%
viability, T/C [18]: 112%
viability, T/C [35]: 102%
viability, T/C [36]: 97.7%
viability, T/C (second compound 0.0949 µM, first compound 3.16 µM): 96.3%
viability, T/C (second compound 0.0949 µM, first compound 10 µM): 88.4%
viability, T/C [21]: 105%
viability, T/C [22]: 106%
viability, T/C [37]: 114%
viability, T/C [38]: 99.8%
viability, T/C (second compound 0.3 µM, first compound 3.16 µM): 96.5%
viability, T/C (second compound 0.3 µM, first compound 10 µM): 99.5%
viability, T/C [25]: 118%
viability, T/C [26]: 120%
viability, T/C [39]: 104%
viability, T/C [40]: 112%
viability, T/C (second compound 0.949 µM, first compound 3.16 µM): 116%
viability, T/C (second compound 0.949 µM, first compound 10 µM): 95%
viability, T/C [29]: 97.4%
viability, T/C [30]: 88%
viability, T/C [41]: 85.2%
viability, T/C [42]: 96.9%
viability, T/C (second compound 3 µM, first compound 3.16 µM): 102%
viability, T/C (second compound 3 µM, first compound 10 µM): 79.2%

Reference: PubChem BioAssay AID1963441 (Molecular Pharmacology Branch, DTP, NCI, 2024)
